Data published in a melting point compilation (Tetko et al.; mined from patent text by program, amines drawn as free bases though some values may be those of a salt).

melting point | Compound
122 °C | C#CCOC(=O)c1ccc(OCCC2CCN(c3ccc(Cl)nn3)CC2)cc1
174 °C | COc1ccc(-c2nc(N)ncc2-c2ccc(=O)n(C(C)C)n2)cc1F
103 to 106 °C | O=C(CSc1ncccn1)NC/C=C\COc1cc(CN2CCCCC2)ccn1
85 to 90 °C | CC#CCOc1ccc(S(=O)(=O)N(C)c2c(C(=O)OCC)cnc3onc(C)c23)cc1
167 °C | O=C(Nc1ccc2ccc(Oc3ccccc3)nc2n1)c1ccco1
292 to 293 °C | CCNc1nc(NS(=O)(=O)c2ccc(N)cc2)cc(N2CCC2)n1
148 to 150 °C | O=C(C=Cc1ccc(O)cc1)N(CCO)CCO
205 to 208 °C | O=C(O)Cc1ccc(OCc2ccc(Cl)cc2C(=O)O)cc1
94 to 95 °C | CC(C)CC(O)(Cn1cncn1)c1ccccc1 (configuration not stated)
206 °C | N#Cc1cc(NC(=O)c2cc3ccccc3s2)ccc1OC1CCN(Cc2ccccc2)CC1
124 to 126 °C | CCOC(C)n1c(C(=O)C(F)(F)F)nc(-c2ccc(OC)cc2)c1-c1ccc(OC)cc1 (configuration not stated)
98 to 100 °C | CCCCC(=O)c1c(-c2ccc3c(Br)c(OCC#N)ccc3c2)oc2ccccc12
244 to 245 °C | CC(C)(CC(O)(C(=O)O)C(F)(F)F)c1ccc(C(N)=O)cc1 (configuration not stated)
62 to 63 °C | C1=CCC(C2CCCCCCC2)N=NC(C2CCCCCCC2)CC=CCC1 (configuration not stated)
89 to 93 °C | COc1cccc(C23CCCC=C2C(=O)N(CC2CCC2)C(=O)C3)c1 (configuration not stated)
159 to 161 °C | BrCc1cccc2c(-c3ccc(Br)cc3)onc12
180 to 207 °C | N#Cc1c(N)ccc(C(=O)CBr)c1Cl
206 to 208 °C | N#Cc1cnc2cnc(F)cc2c1Nc1ccc(Cl)cc1Cl
244 to 247 °C | NC(=O)c1sc2nccc(NC3CCCCC3)c2c1N
111 to 113 °C | NC(=NO)C1CCN(C(=O)OCc2ccccc2)CC1
83 to 84 °C | CN(C)C(=O)N(C)C(=O)N1CCN(c2ccc(F)cc2)CC1
182 to 184 °C | Cc1ccc(-c2cn3cc(-c4cccc(COc5ccc(Cl)cc5)c4)ccc3n2)cc1
68 to 72 °C | O=C(Nc1nccs1)C(CC1CCCC1)c1ccc(Cl)c([N+](=O)[O-])c1 (configuration not stated)
90 to 91 °C | CC(=O)N1CCc2cc(C(=O)CCCCCl)ccc21

melting point | Compound
227 to 228 °C | O=C(CCc1cccc(C(F)(F)F)c1)NNC(=O)c1ccc2[nH]ncc2c1
283 °C | Cc1cccc(-c2sc(N)nc2-c2ccnc(-c3ccc(C(=O)NC4CCOCC4)cc3)c2)n1
149 to 150 °C | O=C(O)c1ccc(CCCC2SCC(=O)N2CCC2(O)CCCC2)cc1 (configuration not stated)
254 to 257 °C | CCCn1cc(C(=O)O)c(=O)c2cnc(N3CCN(C)CC3)nc21
129 to 130 °C | COc1ccc(COc2cccc3cc(NS(=O)(=O)C(F)(F)F)ccc23)cc1Cl
108 to 109 °C | Cc1nn(-c2ccccn2)cc1COc1ccc(COc2ncccc2C#N)cc1
240 to 250 °C | O=C(c1cc(O)c(O)c([N+](=O)[O-])c1)c1nc2ccccc2[nH]1
126 °C | C=CCC(O)c1c(-c2ccc(F)cc2)nc(N(C)S(C)(=O)=O)nc1C(C)C (configuration not stated)
69 to 71 °C | C=CC(=O)NCCCCCCCCCCCCOc1ccccc1
174 to 175 °C | c1ccc(N2CCN(c3nc4c(c(NC5CCCCC5)n3)SCC4)CC2)cc1
287 to 291 °C | COCCNC(=O)c1n[nH]c2c(=O)[nH]c3cc(Cl)ccc3c(=O)c12
191 to 194 °C | Cc1cc(CCc2cc(C)c(O)c(C)c2Br)c(Br)c(C)c1O
167 °C | CC(C)(C)C(=O)NNc1cc(F)c(C#N)cc1F
169 to 170 °C | O=c1cc(-c2ccoc2)c2ccc(Sc3cc(F)cc(-c4cccnc4)c3)cc2o1
146 to 147 °C | O=C(c1ccc(OCCN2CCCC2)cc1)c1c(-c2ccc(O)cc2)sc2cc(O)ccc12
224 to 227 °C | N=C(N)Nc1nc2ccc(OCc3ccccc3)cc2[nH]1
203 °C | O=c1c2[nH]cnc2n(CC2CC2)c(=O)n1CC1CC1
160 °C | Cc1nn(C)c(=O)n1-c1ccc(N)cc1
> 275 °C | C=C(Nc1nc(-c2ccccc2)c(-c2nc3ccccc3c(=O)n2-c2ccccc2Cl)s1)c1ccco1
207 to 208 °C | CCCc1cccc2c(/C=C(\C)C(=O)O)cc(OC)c(OC(C)=O)c12
123 to 125 °C | Brc1cnc(-c2ccccc2)c2ccccc12
245 °C | Cc1nc(NCc2ccccn2)n(C)c(=O)c1CCO
171 to 174 °C | COc1ccc(C(=O)Nc2ccc(C(=O)c3ccccc3)cc2)cc1
158 to 159 °C | COc1cc(OC)cc(C(=O)N2CCc3cc(OCc4ccccc4)ccc3C2=O)c1

melting point | Compound
179 to 181 °C | Cc1ccc2nc(S)sc2c1
148 to 150 °C | CC(=NOCCOc1ccc(C[C@H](Oc2ccc(C(C)(C)C)cc2)C(=O)O)cc1)c1ccc(-c2ccccn2)cc1
235 to 237 °C | Nc1ncnc2c1c(-c1cn[nH]c1)nn2Cc1oc2ccccc2c(=O)c1-c1ccccc1
88 °C | COC(=O)N1C2CC3CC(C2)CC1C3
234 to 236 °C | Cc1cccc(Sc2c(O)c3ccc(Cl)cc3[nH]c2=O)c1
152 to 153 °C | C=C(C)Cn1c(N)c(N)c(=O)n(C)c1=O
109 to 112 °C | N#Cc1ncc(Br)cc1Br
116 to 118 °C | Oc1ccc2c(c1)cc1n2CCC1
> 300 °C | Nc1cc2nc(O)c(O)nc2c2ccccc12
209 °C | COc1ccc(C=NNC(=O)c2ccc(O)cc2)cc1
145 to 146 °C | CC(=O)Nc1nc(CO)c(Cl)s1
220 to 225 °C | O=C(NO)c1ccc(N2CCCC2)cn1
62 °C | CC(C)[C@@H]1COC(=O)N1C(=O)CCc1ccccc1
208 to 209 °C | Cc1nc(-c2ccc(Cl)cc2)c(CC(Cl)C(=O)O)o1 (configuration not stated)
66 to 67 °C | Cc1cccc(-c2nn(C)cc2-c2ccc(F)c(-c3ccc(S(C)(=O)=O)cc3)c2)n1
184 °C | CCOCc1nc2c(c3cc(OCc4ccccc4)ccc3n3nnnc23)n1CC(C)C
181 to 182 °C | CCOC(=O)c1cn(CC)c2nc(OC)c(F)cc2c1=O
326 to 330 °C | CC(=O)N(c1ccc(N2CCN(C)CC2)cc1)c1ncc2c(n1)S/C(=C/c1ccc(C(=O)O)cc1)C(=O)N2
69 to 72 °C | CC1CCN=C2N1c1ccc(Br)cc1C21OCCCO1 (configuration not stated)
118 to 125 °C | c1ccc(SCCn2c(-c3ccccc3)nc3cc(CN4CCN(C(c5ccccc5)c5ccccc5)CC4)ccc32)cc1
153 to 155 °C | CC1CCC(NS(=O)(=O)NC(=O)OCc2ccccc2)CC1 (configuration not stated)
133 °C | CC(CN1CCN(c2ccc(F)cc2)CC1)CN1c2cccc3cccc(c23)S1(=O)=O (configuration not stated)
159 to 161 °C | COc1ccc([C@H]2C=CN(S(=O)(=O)c3ccc(OC)cc3)C(=O)[C@H]2CCC2C=CC=CC2=O)cc1 (some centres not stated)
102 to 106 °C | COC(OC)C1(C)CCc2c(C)c(O)c(C)c(C)c2O1 (configuration not stated)

melting point | Compound
126 °C | CCOC(=O)/C(=N\OC1(C)CCCCC1)c1csc(N)n1
235 to 237 °C | CCOC(=O)c1cc(CCC2CNc3nc(NC(=O)C(C)(C)C)nc(O)c3C2)[nH]n1 (configuration not stated)
52 to 54 °C | OCCCc1ccc(O)cc1
154 to 155 °C | CC(C)(C)c1cc(Cl)ccc1N1CCN(C(=O)C(=O)O)CC1
116 to 117 °C | O=S(=O)(CCCCl)Nc1cccc(OCc2ccc3ccccc3n2)c1
188 to 190 °C | CN(CCO)c1cc(Cl)nc(SCC(=O)O)n1
142 to 143 °C | CCOC(=O)c1ccc(-c2cnc(-c3ccc(C(F)(F)F)cc3)o2)cc1
180 °C | CC(=NO)[C@H]1C[C@H](C(=O)OC(C)(C)C)N(C(=O)CNC(=O)Nc2cccc(C(=O)O)c2)[C@@H]1c1ccccc1 (racemic)
180 to 182 °C | CCOC(=O)c1ccc2nnc(-c3ncc([N+](=O)[O-])n3C)n2n1
279 °C | O=C(Nc1nnn[nH]1)c1cccc([N+](=O)[O-])c1Cl
52 to 56 °C | O=C(O)C1=CCC2CC(=O)C12 (configuration not stated)
259 to 261 °C | N#Cc1c(-c2ccc(Cl)cc2)[nH]c(Cl)c1Cl
95 to 97 °C | CC(C)=CCN1C(=O)c2ccccc2C1=O
195 to 196 °C | CC(=O)Nc1ccc2ccn(C3CCN(CCc4ccc(F)cc4)CC3)c2c1
71 to 72 °C | CCCC[Si](C)(C)CCCSCCCNC(=O)n1cc(F)c(=O)[nH]c1=O
126 to 128 °C | CC(=O)CN1C(=O)C(NC(=O)Nc2cccc(C)c2)N=C(C)c2cccc(C)c21 (configuration not stated)
216 to 218 °C | O=c1ccn(-c2cccc(C(F)(F)F)c2)nc1-c1cn(C(c2ccccc2)(c2ccccc2)c2ccccc2)nc1-c1ccccc1
> 260 °C | O=C1NC(=O)C2(CCc3cc(F)ccc32)N1 (racemic)
104 to 105 °C | CCN1c2ncc(Cc3cccc(F)c3)cc2C(=O)N(C)c2ccc(Cl)nc21
129 to 130 °C | O=C(O)C(=O)c1cc(F)c(OCCOc2ccc3ccccc3c2)c(F)c1
198 to 199 °C | CC(=O)OCCn1cc(C2=C(c3cn(C)c4ccccc34)C(=O)OC2=O)c2ccccc21

Compound | melting point
CCN1CCCC1CNC(=O)c1ccc(Cl)nc1Cl (configuration not stated) | 73 to 74 °C
O=C1c2cc(F)ccc2-n2cnc(C(=O)n3ccnc3)c2[C@@H]2CCCN12 | 206 to 207 °C
CC(C)N[C@@H]1Cc2cccc(O)c2C[C@H]1O (relative stereo) | 138 to 140 °C
C#Cc1ccc2c(c1)C(c1ccccc1F)=NC(C)c1c(C(=O)OCC)ncn1-2 (configuration not stated) | 212 to 214 °C
CC12CCC3C(CC=C4CC(F)CCC43C)C1CCC2=O (configuration not stated) | 155 to 156 °C
CN(N)C1=Nc2ccc(Cl)cc2C(c2ccccc2)=NC1 | 167 to 173 °C
COc1ccc(C(C)(O)CO)cc1CN[C@H]1C2CCN(CC2)[C@H]1C(c1ccccc1)c1ccccc1 (some centres not stated) | 65.5 to 82.8 °C
O=[N+]([O-])C(F)(CCc1nnc(C(F)(F)C(F)(F)F)o1)[N+](=O)[O-] | 3 to 5 °C
CN1CCN(C2CCCc3nc4ccccc4c(N)c32)CC1 (configuration not stated) | 200 to 202 °C
